Results from patent US10939692B2, “Method for culturing aquatic animals with aspartyl-dipeptides” (Cysal GmbH, priority 2015, dated 2021).

Columns and labels:
Assay type in all cases: in vivo
[1] = test system: Atlantic salmon (Salmo salar L.); assay: Salmon nutrition experiment (bioavailability, arginine retention, growth, safety)
Source text: The objective of the experiment was to examine the in vivo bioavailability of the above described “β-L-aspartyl-R” dipeptides in fish for the first time and consequently to determine their applicability as a substitute of free amino acids sources in Atlantic salmon (Salmo salar L.) nutrition. Therefore, varying supplementation levels of β-L-aspartyl-L-arginine in contrast to a mixture of free amino acids L-arginine and L-aspartic acid were compared.
315 Atlantic salmon (96.33 g±11.47 g; Danish Salmon AS, Hirtshals, DK) were acclimatized for 14 d in the experimental rearing system. The tanks of the system were part of a recirculation system (3.5 m^3 water volume, turnover rate 2 h^−1). The water purification system consisted of a mechanical filter, a moving bed filter, and a protein skimmer. Water quality parameters were maintained within a safe range for the fish (7.2-7.6 pH; GMH 3530, Digital pH-/mV-/Thermometer, Greisinger electronic, D; 22.5±0.3° C., 8.5±0.4 mg/l O2; Handy Polaris; Oxy-Guard International A/S, Birkerod, Denmark; <0.4 mg/l NH4—N; <0.24 mg/l NO2—N; Microquant test kit for NH4 and NO2; Merck KgaA, Darmstadt, Germany). The light conditions were set to 14 h/10 h light/dark cycle. During acclimatization fish were fed a commercial salmon feed (Aller Gold 4 mm; AllerAqua A/S, Christiansfeld, Denmark). The fish were reared in 150 l aquaria. Triplicate fish groups (3×15) were fed to apparent satiation twice a day over a period of 10 weeks.
In order to fulfill the nutritional demands of Atlantic salmon (except for arginine content), the different concentrations of the test substances were added to a basal diet which was produced with the following common ingredients used for fish nutrition: Fish meal (Clupea sp.) 9.91%, Blood meal 1.93%, Casein 3.05%, Corn gluten 20.80%, Wheat gluten 22.09%, Biolysine™ 1.48%, Wheat starch 25.43%, Fish oil 11.13%, Ca2PO4 0.46%, Vit/min premix 0.93%, TiO2 0.93%, and Carboxymethyl cellulose ad 100% (after adding the test supplements). The experiment was carried out with the resulting 7 dietary treatments:
Samples of all experimental groups were analyzed for arginine retention in the lab of LUFA in Kiel. […] Crude protein content (N×6.25) was determined by the Kjeldahl method, crude lipid content after hydrolysis with hydrochloric acid followed by a petroleum ether extraction using a Soxhlet extraction system, DM after drying at 103° C. until constant weight, and ash content after 4 h incineration at 550° C. in a combustion oven (P300; Nabertherm, Lilienthal, Germany). Furthermore, gross energy was measured in a bomb calorimeter (C 200; IKA, Staufen, Germany).
The statistical analyses were performed using SPSS 21.0 for Windows (SPSS Inc., Chicago, U.S.). […] Data were analyzed for variance homogeneity by Levene (p<0.05). […]

Oreochromis niloticus = assay: Aquaculture screening experiment, Tilapia growth on arginine-limited basal diet; conditions: after two months
Source text: (§1) Nearly all of the […] species relevant to aquaculture belong to three supra-orders: Ostariophysi ([…], catfish, and allies), Protacanthopterygii (e.g. pike, trouts and salmon), and Acanthopterygii (around 50% of all fish species, including all […], flatfish, tuna, etc.). In order to cover as much of the phylogenetic range as possible, fish species were chosen from each of these supra-orders (Ostariophysi; Clarias gariepinus, Protacanthopterygii; Oncorhychus mykiss, Acanthopterygii; Oreochromis niloticus). Additionally, kuruma shrimp (Marsupenaeus japonicus) was chosen as a representative species of crustacean due to its significance in the high-end market. At the end of the experiment, the individual weights were recorded and the data analyzed statistically. All experiments started with young fry or postlarvae. All species except trout were housed during the experiments in parallel recirculation systems of fresh water. Marsupenaeus japonicus shrimp were maintained in seawater. Oreochromis niloticus and Clarias gariepinus were housed in 200-L tanks filtered by a commercial pond filter. Trout were housed in a smaller system composed of 70-l tanks connected in series to account for the species' higher oxygen demand and preference for stronger current. Water quality (oxygen levels, nitrite, and nitrate) was monitored weekly. Partial water replacements were performed if the desired levels were exceeded. (<3 mg O2/l, detectable nitrite, >25 mg/l nitrate). […] Basal diet composition for Tilapia and Kuruma shrimp contained a calculated arginine content of about 1.35% (of diet) which is lower than the minimum requirements of both Tilapia and Kuruma shrimp: corn 40%, soybean meal 21%, rice polishings 14%, gluten 11%, wheat bran 5%, herring meal 5%, monocalcium phosphate 0.8%, limestone 0.7%, L-lysine HCl 0.7%, fish oil 0.5%, vitamin mineral premix 0.3%, sodium bicarbonate 0.15%, salt 0.15%, pellet binder 0.05%. […]

Marsupenaeus japonicus = assay: Aquaculture screening experiment, kuruma shrimp growth on arginine-limited basal diet; conditions: after two months
Source text: as §1, with “All species except trout were housed during the experiments in parallel recirculation systems of fresh water. Marsupenaeus japonicus shrimp were maintained in seawater. Oreochromis niloticus and Clarias gariepinus were housed in 200-L tanks filtered by a commercial pond filter. Trout were housed in a smaller system composed of 70-l tanks connected in series to account for the species' higher oxygen demand and preference for stronger current.” left out, “weekly.” for “weekly. Partial water replacements were performed if the desired levels were exceeded. (<3 mg O2/l, detectable nitrite, >25 mg/l nitrate).”

Clarias gariepinus = assay: Aquaculture screening experiment, African catfish growth on arginine-limited basal diet; conditions: after four months
Source text: (§2) Nearly all of the […] species relevant to aquaculture belong to three supra-orders: Ostariophysi ([…], catfish, and allies), Protacanthopterygii (e.g. pike, trouts and salmon), and Acanthopterygii (around 50% of all fish species, including all […], flatfish, tuna, etc.). In order to cover as much of the phylogenetic range as possible, fish species were chosen from each of these supra-orders (Ostariophysi; Clarias gariepinus, Protacanthopterygii; Oncorhychus mykiss, Acanthopterygii; Oreochromis niloticus). Additionally, kuruma shrimp (Marsupenaeus japonicus) was chosen as a representative species of crustacean due to its significance in the high-end market. At the end of the experiment, the individual weights were recorded and the data analyzed statistically. All experiments started with young fry or postlarvae. All species except trout were housed during the experiments in parallel recirculation systems of fresh water. Marsupenaeus japonicus shrimp were maintained in seawater. Oreochromis niloticus and Clarias gariepinus were housed in 200-L tanks filtered by a commercial pond filter. Trout were housed in a smaller system composed of 70-l tanks connected in series to account for the species' higher oxygen demand and preference for stronger current. Water quality (oxygen levels, nitrite, and nitrate) was monitored weekly. Partial water replacements were performed if the desired levels were exceeded. (<3 mg O2/l, detectable nitrite, >25 mg/l nitrate). In order to examine the efficiency of dipeptide products after as feed supplements for aquaculture, β-L-aspartyl-arginine as obtained in Example 1 was used in combination with basal arginine-limited diets. The latter diets were supplemented with the said dipeptide products to a concentration of 1.25 or 2.5% (wt/wt), or with corresponding isonitrogenous concentrations of an aspartic acid-arginine mixture (to determine the effect of free amino acids alone). Basal diets were formulated from individual components in common use in the aquaculture feed industry to ensure realistic conditions. […]

Oncorhynchus mykiss = assay: Aquaculture screening experiment, trout growth on arginine-limited basal diet; conditions: after four months
Source text: as §2

SMILES: N=C(N)NCCC[C@H](NC(=O)C[C@H](N)C(=O)O)C(=O)O [Asp-Arg, β-L-aspartyl-L-arginine]
- safety (mortalities, behavior, postmortem inspection, tissue and blood analysis) ([1]; Atlantic salmon, 0.2-0.6% in diet, 10 weeks): safe for fish
- weight gain at the highest level of supplementation ([1]; Atlantic salmon, 0.6% supplementation, 10 weeks (FIG. 1)): not seen
- whole body protein level ([1]; Atlantic salmon, 10 weeks, compared to the free amino acid groups): higher body protein level
- bioavailability of the dipeptide form versus the free form ([1]; in vivo): five-fold better
- mean (wt in g) (Oreochromis niloticus; 1.25% supplement in basal diet): 1.84 g
- mean (wt in g) (Oreochromis niloticus; 2.5% supplement in basal diet): 2.03 g
- final weight, % of the control (Oreochromis niloticus; feed supplemented with 2.5% dipeptide): over 120 % of the control
- average weight versus amino acid feeding and control (Marsupenaeus japonicus; 1.25%): higher than that of the amino acid feeding and that of the control group
- mean (Marsupenaeus japonicus; 1.25% supplement in basal diet, average weight): 0.35 g
- mean (wt in g) (Clarias gariepinus; 1.25% (wt/wt) supplement in basal diet): 6.63 g
- mean (wt in g) (Clarias gariepinus; 2.5% (wt/wt) supplement in basal diet): 8.42 g
- average final weight, % of the control (Clarias gariepinus; addition of dipeptides): around 144 % of the control
- mean (wt in g) (Oncorhynchus mykiss; 1.25% supplement in basal diet): 13.63 g
- mean (wt in g) (Oncorhynchus mykiss; 2.5% supplement in basal diet): 15.33 g
- average final weight, % of the control (Oncorhynchus mykiss; feed containing 2.5% dipeptides): around 115 % of the control
